Assay results reported in ChEMBL document CHEMBL5316325, “Design and Synthesis of 3-Hydroxy-pyridin-4(1H)-ones-Ciprofloxacin Conjugates as Dual Antibacterial and Antibiofilm Agents against Pseudomonas aeruginosa” (J Med Chem, 2023).
In brackets after ≈: the same amount, converted by molar mass. Activity calls are given as the source filed them. No cut-off for these calls is given here.

Tests used:
Pseudomonas aeruginosa [1] = test: Antibiofilm activity against Pseudomonas aeruginosa PAO1 in ABTGC medium assessed as biofilm biomass at 1/4 times MIC incubated for 24 hrs by crystal violet staining based assay relative to control; assay type: functional
Pseudomonas aeruginosa [2] = test: Antibacterial activity against Pseudomonas aeruginosa ATCC 27853 in MHB medium assessed as bacterial growth inhibition by CLSI based broth microdilution method; assay type: functional
Pseudomonas aeruginosa [3] = test: Antibacterial activity against Pseudomonas aeruginosa PAO1 in MHB medium assessed as bacterial growth inhibition by CLSI based broth microdilution method; assay type: functional
Pseudomonas aeruginosa [4] = test: Antibacterial activity against Pseudomonas aeruginosa FB in MHB medium assessed as bacterial growth inhibition by CLSI based broth microdilution method; assay type: functional
Pseudomonas aeruginosa [5] = test: Antibacterial activity against Pseudomonas aeruginosa 1167 in MHB medium assessed as bacterial growth inhibition by CLSI based broth microdilution method; assay type: functional
Pseudomonas aeruginosa [6] = test: Antibacterial activity against Pseudomonas aeruginosa 1121 in MHB medium assessed as bacterial growth inhibition by CLSI based broth microdilution method; assay type: functional
Pseudomonas aeruginosa [7] = test: Antibacterial activity against Pseudomonas aeruginosa 1129 in MHB medium assessed as bacterial growth inhibition by CLSI based broth microdilution method; assay type: functional
Escherichia coli = test: Antibacterial activity against Escherichia coli ATCC 25922 in MHB medium assessed as bacterial growth inhibition by CLSI based broth microdilution method; assay type: functional
Klebsiella pneumoniae = test: Antibacterial activity against Klebsiella pneumoniae ATCC 700603 in MHB medium assessed as bacterial growth inhibition by CLSI based broth microdilution method; assay type: functional
Staphylococcus aureus [8] = test: Antibacterial activity against Staphylococcus aureus ATCC 25923 in MHB medium assessed as bacterial growth inhibition by CLSI based broth microdilution method; assay type: functional
Staphylococcus aureus [9] = test: Antibacterial activity against methicillin-resistant Staphylococcus aureus ATCC 515992 in MHB medium assessed as bacterial growth inhibition by CLSI based broth microdilution method; assay type: functional
Pseudomonas aeruginosa [10] = test: Antibacterial activity against Pseudomonas aeruginosa PAO1 in ABTGC medium assessed as bacterial growth inhibition; assay type: functional
Pseudomonas aeruginosa [11] = test: Antibiofilm activity against Pseudomonas aeruginosa PAO1 in ABTGC medium assessed as biofilm biomass at 1/2 times MIC incubated for 24 hrs by crystal violet staining based assay relative to control; assay type: functional
Pseudomonas aeruginosa [12] = test: Antibiofilm activity against Pseudomonas aeruginosa PAO1 in ABTGC medium assessed as biofilm biomass at MIC incubated for 24 hrs by crystal violet staining based assay relative to control; assay type: functional
Pseudomonas aeruginosa [13] = test: Antibacterial activity against Pseudomonas aeruginosa PAO1 assessed as log reduction in CFU/ml at 8 times MIC measured after 2 hrs by time killing analysis; assay type: functional
Pseudomonas aeruginosa [14] = test: Antibacterial activity against Pseudomonas aeruginosa PAO1 assessed as reduction in bacterial CFU count at 8 times MIC measured after 4 hrs by time killing analysis; assay type: functional, organism-based
Pseudomonas aeruginosa [15] = test: Antibacterial activity against Pseudomonas aeruginosa PAO1 assessed as reduction in bacterial viability at MIC measured after 8 hrs by time killing analysis; assay type: functional, organism-based
Pseudomonas aeruginosa [16] = test: Antibacterial activity against Pseudomonas aeruginosa PAO1 assessed as reduction in bacterial viability at 8 times MIC measured after 4 hrs by time killing analysis; assay type: functional, organism-based
Pseudomonas aeruginosa [17] = test: Antibiofilm activity against Pseudomonas aeruginosa PAO1 assessed as biofilm eradication at 4 times MIC incubated for 24 hrs by crystal violet staining based assay relative to control; assay type: functional
Pseudomonas aeruginosa [18] = test: Antibiofilm activity against Pseudomonas aeruginosa PAO1 assessed as biofilm eradication at high concentration incubated for 36 hrs by crystal violet staining based assay; assay type: functional, organism-based
Pseudomonas aeruginosa [19] = test: Antibiofilm activity against Pseudomonas aeruginosa PAO1 in ABTGC medium assessed as biofilm biomass at MIC incubated for 24 hrs in presence of 10 uM Fe by crystal violet staining based assay relative to control; assay type: functional
Pseudomonas aeruginosa [20] = test: Antibiofilm activity against Pseudomonas aeruginosa PAO1 in ABTGC medium assessed as biofilm biomass at 1/2 times MIC incubated for 24 hrs in presence of 10 uM Fe by crystal violet staining based assay relative to control; assay type: functional
Pseudomonas aeruginosa [21] = test: Antibiofilm activity against Pseudomonas aeruginosa PAO1 in ABTGC medium assessed as biofilm biomass at 1/4 times MIC incubated for 24 hrs in presence of 10 uM Fe by crystal violet staining based assay relative to control; assay type: functional
Pseudomonas aeruginosa [22] = test: Antibiofilm activity against Pseudomonas aeruginosa PAO1 in ABTGC medium assessed as biofilm biomass at MIC incubated for 24 hrs in presence of 40 uM Fe by crystal violet staining based assay relative to control; assay type: functional
Pseudomonas aeruginosa [23] = test: Antibiofilm activity against Pseudomonas aeruginosa PAO1 in ABTGC medium assessed as biofilm biomass at 1/2 times MIC incubated for 24 hrs in presence of 40 uM Fe by crystal violet staining based assay relative to control; assay type: functional
Pseudomonas aeruginosa [24] = test: Antibiofilm activity against Pseudomonas aeruginosa PAO1 in ABTGC medium assessed as biofilm biomass at 1/4 times MIC incubated for 24 hrs in presence of 40 uM Fe by crystal violet staining based assay relative to control; assay type: functional
Pseudomonas aeruginosa [25] = test: Antibiofilm activity against Pseudomonas aeruginosa PAO1 assessed as decrease in rhamnolipid level by absorbance based assay; assay type: functional, organism-based; details: dose 1.72-6.88 µM
Pseudomonas aeruginosa [26] = test: Antibiofilm activity against Pseudomonas aeruginosa PAO1 assessed as decrease in pyocyanin level by absorbance based assay; assay type: functional, organism-based; details: dose 1.72-6.88 µM
Pseudomonas aeruginosa [27] = test: Antibiofilm activity against Pseudomonas aeruginosa PAO1 assessed as decrease in rhamnolipid level at 3.44 uM by absorbance based assay relative to control; assay type: functional; parameters: scale not given: the % may be the effect or the level left
Pseudomonas aeruginosa [28] = test: Antibiofilm activity against Pseudomonas aeruginosa PAO1 assessed as decrease in pyocyanin level at 3.44 uM by absorbance based assay relative to control; assay type: functional; parameters: scale not given: the % may be the effect or the level left
Pseudomonas aeruginosa [29] = test: Antibiofilm activity against Pseudomonas aeruginosa PAO1 assessed as reduction in swimming motility at 3.44 uM incubated for 16 hrs relative to control; assay type: functional; parameters: scale not given: the % may be the effect or the level left
Pseudomonas aeruginosa [30] = test: Antibiofilm activity against Pseudomonas aeruginosa PAO1 assessed as reduction in swarming motility at 3.44 uM incubated for 16 hrs relative to control; assay type: functional; parameters: scale not given: the % may be the effect or the level left
Pseudomonas aeruginosa [31] = test: Antibiofilm activity against Pseudomonas aeruginosa PAO1 assessed as reduction in twitching motility at 3.44 uM incubated for 16 hrs relative to control; assay type: functional; parameters: scale not given: the % may be the effect or the level left
HEK293 = test: Cytotoxicity against HEK293 cells upto 100 uM incubated for 48 hrs by MTT assay; assay type: toxicity, cell-based; details: human, hek293, 48 h
A549 = test: Cytotoxicity against human A549 cells upto 100 uM incubated for 16 hrs by MTT assay; assay type: toxicity, cell-based; details: a549, 16 h
[32] = Toxicity in Caenorhabditis elegans assessed as survival rate at 50 to 100 uM measured after 48 hrs by bright field microscopy; details: dose 50-100 µM
Pseudomonas aeruginosa [33] = test: Antibacterial activity against Pseudomonas aeruginosa PAO1 assessed as decrease in bacterial load at MIC measured for 12 hrs by absorbance based assay; assay type: functional, organism-based
[34] = Toxicity in Caenorhabditis elegans infected with Pseudomonas aeruginosa PAO1 assessed as survival at MIC measured after 48 hrs by bright field microscopy relative to control; details: read-out: Activity

In the case of `Cc1cc(=O)c(O)c(CNC(=O)CCC(=O)N2CCN(c3cc4c(cc3F)c(=O)c(C(=O)O)cn4C3CC3)CC2)n1C`, the Activity (Pseudomonas aeruginosa [1]) is reported as 21.7%, the MIC (Pseudomonas aeruginosa [2]) is reported as 0.86 µM (≈ 0.5 µg/mL) and the MIC (Pseudomonas aeruginosa [3]) is reported as 0.43 µM (≈ 0.25 µg/mL). For the same compound, the MIC (Pseudomonas aeruginosa [4]) was 1.72 µM (≈ 1 µg/mL), the MIC (Pseudomonas aeruginosa [5]) was 0.86 µM (≈ 0.5 µg/mL) and the MIC (Pseudomonas aeruginosa [6]) was 1.72 µM (≈ 1 µg/mL). It also gave an MIC (Pseudomonas aeruginosa [7]) of 3.44 µM (≈ 2 µg/mL), an MIC (Escherichia coli) of 0.03 µM (≈ 0.0174 µg/mL) and an MIC (Klebsiella pneumoniae) of 1.72 µM (≈ 1 µg/mL). For the same compound, the MIC (Staphylococcus aureus [8]) was 3.44 µM (≈ 2 µg/mL), the MIC (Staphylococcus aureus [9]) was greater than 200 µM and the MIC (Pseudomonas aeruginosa [10]) was 6.88 µM (≈ 4 µg/mL). It also gave an Activity (Pseudomonas aeruginosa [11]) of 111.5%, an Activity (Pseudomonas aeruginosa [12]) of 39% and an FC (Pseudomonas aeruginosa [13]) of 2. For the same compound, the Activity (Pseudomonas aeruginosa [14]) was “Active”, the Activity (Pseudomonas aeruginosa [15]) was “Active” and the Activity (Pseudomonas aeruginosa [16]) was “Active”. The Activity (Pseudomonas aeruginosa [17]) was 74.2%, the Activity (Pseudomonas aeruginosa [18]) was “Active” and the Activity (Pseudomonas aeruginosa [19]) was 39%. It also gave an Activity (Pseudomonas aeruginosa [20]) of 111.5%, an Activity (Pseudomonas aeruginosa [21]) of 21.7% and an Activity (Pseudomonas aeruginosa [22]) of 211%. For the same compound, the Activity (Pseudomonas aeruginosa [23]) was 223.4%, the Activity (Pseudomonas aeruginosa [24]) was 205.2% and the Activity (Pseudomonas aeruginosa [25]) was “Dose-Dependent Effect”. For the same compound, the Activity (Pseudomonas aeruginosa [26]) was “Dose-Dependent Effect”, the Activity (Pseudomonas aeruginosa [27]) was 20% and the Activity (Pseudomonas aeruginosa [28]) was 40%. The Activity (Pseudomonas aeruginosa [29]) was 63%, the Activity (Pseudomonas aeruginosa [30]) was 30% and the Activity (Pseudomonas aeruginosa [31]) was 63%. For the same compound, the Activity (HEK293) was “Non-Toxic”, the Activity (A549) was “Non-Toxic” and the Activity [32] was “Non-Toxic”. The Activity (Pseudomonas aeruginosa [33]) was “Active” and the survival at 48 h [34] was 50%.
